In patent US10329309B2, “3-(3H-imidazo[4,5-B]pyridin-2-yl)-1H-pyrazolo[4,3-B]pyridines and therapeutic uses thereof” (Samumed, LLC, priority 2015, dated 2019):
pEC50: −log10 of the molar value.

Columns and labels:
Format in all cases: cell-based
[1] = system: Wnt activity (Sp5-Luc reporter, SW480 colon carcinoma cells); experiment: Screening assay for Wnt activity: Sp5-Luc reporter gene assay in SW480 cells; conditions: Homo sapiens; for inhibition at 10 µM: 10 μM compound, read-out: percent inhibition at 10 μM (given for EC50 of >10 μM); for pEC50: overnight incubation, 10-point dose-response from 10 μM
Summary of the method: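 Luminescence (BrightGlo) read after overnight 37 °C exposure of Sp5-Luc SW480 reporter cells, 4,000/well in 1% FBS, to compound dosed 1:3 over 10 points from 10 μM with 0.1% DMSO. Values normalized to DMSO-only cells, fitted with variable-slope four-parameter model; where EC50 exceeds 10 μM, % inhibition at 10 μM reported.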

SW480 colon cancer cells = experiment: Cell viability assay (CellTiter-Blue), four days; conditions: Homo sapiens, 96 h; for pEC50: CellTiter-Blue cell viability; for inhibition at 10 µM: read-out: percent inhibition at 10 μM (given for EC50 of >10 μM)
Summary of the method: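 Four-day viability readout in SW480 cells: compound at 0.0045–10 μM (1:3 series), DMSO controls in eight replicates, CellTiter-Blue fluorescence after ~3 h. Values are regression-derived EC50s, or percent inhibition at 10 μM when EC50 exceeds 10 μM.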

IL-6 (THP-1 cells) = experiment: Inhibition of IL-6 in LPS-stimulated THP-1 monocytes (HTRF); conditions: Homo sapiens; for pEC50: LPS 500 ng/mL, IL-6 by HTRF; for inhibition at 10 µM: LPS stimulated, IL-6, at 10 μM, read-out: percent inhibition at 10 μM (given for EC50 of >10 μM)
Summary of the method: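 IL-6 release was read as the HTRF 665/620 nm ratio after 22 h of 500 ng/mL LPS at 37 °C. Before stimulation, THP-1 cells kept 24 h in 1% FBS were exposed 2 h to a 10-point 1:3 compound series starting at 10 μM, in 0.1% DMSO. Four-parameter EC50s came from DMSO-normalized duplicates, with % inhibition at 10 μM reported beyond 10 μM.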

| SMILES | pEC50 [1] | pEC50 (SW480 colon cancer cells) | pEC50 (IL-6 (THP-1 cells)) | inhibition at 10 µM [1] | inhibition at 10 µM (SW480 colon cancer cells) | inhibition at 10 µM (IL-6 (THP-1 cells)) |
| --- | --- | --- | --- | --- | --- | --- |
| c1cc(-c2ccc3[nH]nc(-c4nc5c(-c6ccncc6)ccnc5[nH]4)c3n2)ccn1 [Compound 130, 5-(pyridin-4-yl)-3-(7-(pyridin-4-yl)-3H-imidazo[4,5-b]pyridin-2-yl)-1H-pyrazolo [4,3-b]pyridine] | < 5.00 | < 5.00 | < 5.00 | 12.1% | 0% | 18.9% |
| c1cc(-c2ccoc2)c2nc(-c3n[nH]c4ccc(-c5cncc(OCCN6CCCC6)c5)nc34)[nH]c2n1 [Compound 690, 3-(7-(Furan-3-yl)-3H-imidazo[4,5-b]pyridin-2-yl)-5-(5-(2-(pyrrolidin-1-yl)ethoxy)pyridin-3-yl)-1H-pyrazolo[4,3-b]pyridine] | < 5.00 | < 5.00 | < 5.00 | 37.6% | 26.6% | 42.9% |
| CN(C)Cc1cncc(-c2ccc3[nH]nc(-c4nc5c(N6CCCCC6)ccnc5[nH]4)c3n2)c1 [Compound 181, N,N-dimethyl-1-(5-(3-(7-(piperidin-1-yl)-3H-imidazo[4,5-b]pyridin-2-yl)-1H-pyrazolo[4,3-b]pyridin-5-yl)pyridin-3-yl)methanamine] | < 5.00 | 5.26 | 5.08 | 2.2% |  |  |
| Cn1cc(-c2ccc3[nH]nc(-c4nc5c(-c6cccs6)ccnc5[nH]4)c3n2)cn1 [Compound 700, 5-(1-Methyl-1H-pyrazol-4-yl)-3-(7-(thiophen-2-yl)-3H-imidazo[4,5-b]pyridin-2-yl)-1H-pyrazolo[4,3-b]pyridine] | < 5.00 | < 5.00 | < 5.00 | 3.4% | 0.1% | 0% |
| Cc1cn(-c2ccnc3[nH]c(-c4n[nH]c5ccc(-c6cncc(N7CC(N)C7)n6)nc45)nc23)cn1 [Compound 622, 1-(6-(3-(7-(4-Methyl-1H-imidazol-1-yl)-3H-imidazo[4,5-b]pyridin-2-yl)-1H-pyrazolo[4,3-b]pyridin-5-yl)pyrazin-2-yl)azetidin-3-amine] | < 5.00 | < 5.00 | 6.04 | 9.8% | 4.7% |  |
| Fc1cccc(-c2ccnc3[nH]c(-c4n[nH]c5ccc(-c6ccncc6)nc45)nc23)c1 [Compound 18, 3-(7-(3-fluorophenyl)-3H-imidazo[4,5-b]pyridin-2-yl)-5-(pyridin-4-yl)-1H-pyrazolo[4,3-b]pyridine] | < 5.00 | < 5.00 | < 5.00 | 21% | 0% | 18.4% |
| Fc1cccc(-c2ccnc3[nH]c(-c4n[nH]c5ccc(-c6cncc(CN7CCC(F)(F)C7)c6)nc45)nc23)c1 [Compound 26, 5-(5-((3,3-Difluoropyrrolidin-1-yl)methyl)pyridin-3-yl)-3-(7-(3-fluorophenyl)-3H-imidazo[4,5-b]pyridin-2-yl)-1H-pyrazolo[4,3-b]pyridine] | 6.05 | 6.39 | 6.01 |  |  |  |
| c1cc(N2CCCCC2)c2nc(-c3n[nH]c4ccc(-c5cncc(OCCN6CCCC6)c5)nc34)[nH]c2n1 [Compound 610, 3-(7-(Piperidin-1-yl)-3H-imidazo[4,5-b]pyridin-2-yl)-5-(5-(2-(pyrrolidin-1-yl)ethoxy)pyridin-3-yl)-1H-pyrazolo[4,3-b]pyridine] | < 5.00 | < 5.00 | < 5.00 | 4.8% | 3.5% | 25.3% |

Second part, led by results:

| pEC50 [1] | pEC50 (SW480 colon cancer cells) | pEC50 (IL-6 (THP-1 cells)) | SMILES | inhibition at 10 µM [1] | inhibition at 10 µM (SW480 colon cancer cells) | inhibition at 10 µM (IL-6 (THP-1 cells)) |
| --- | --- | --- | --- | --- | --- | --- |
| < 5.00 | < 5.00 | < 5.00 | CN1CCN(c2ccnc3[nH]c(-c4n[nH]c5ccc(-c6cncnc6)nc45)nc23)CC1 [Compound 251, 3-(7-(4-Methylpiperazin-1-yl)-3H-imidazo[4,5-b]pyridin-2-yl)-5-(pyrimidin-5-yl)-1H-pyrazolo[4,3-b]pyridine] | 16.5% | 0% | 8.3% |
| < 5.00 | < 5.00 | < 5.00 | Cc1cn(-c2ccnc3[nH]c(-c4n[nH]c5ccc(-c6cncc(NC(=O)CC(C)C)c6)nc45)nc23)cn1 [Compound 198, 3-methyl-N-(5-(3-(7-(4-methyl-1H-imidazol-1-yl)-3H-imidazo[4,5-b]pyridin-2-yl)-1H-pyrazolo[4,3-b]pyridin-5-yl)pyridin-3-yl)butanamide] | 27.6% | 46% | 29.1% |
| < 5.00 | < 5.00 | < 5.00 | Cn1cc(-c2ccc3[nH]nc(-c4nc5c(-c6ccc7c(c6)OCO7)ccnc5[nH]4)c3n2)c(CO)n1 [Compound 1152, (4-(3-(7-(Benzo[d][1,3]dioxol-5-yl)-3H-imidazo[4,5-b]pyridin-2-yl)-1H-pyrazolo[4,3-b]pyridin-5-yl)-1-methyl-1H-pyrazol-3-yl)methanol] | 15.4% | 28.2% | 28.4% |
| < 5.00 | < 5.00 | < 5.00 | Fc1cccc(-c2ccnc3[nH]c(-c4n[nH]c5ccc(-c6cn[nH]c6)nc45)nc23)c1 [Compound 507, 3-(7-(3-fluorophenyl)-3H-imidazo[4,5-b]pyridin-2-yl)-5-(1H-pyrazol-4-yl)-1H-pyrazolo[4,3-b]pyridine] | 17% | 0% | 35.9% |
| < 5.00 | < 5.00 | < 5.00 | Oc1cncc(-c2ccc3[nH]nc(-c4nc5cccnc5[nH]4)c3n2)c1 [Compound 661, 5-(3-(3H-Imidazo[4,5-b]pyridin-2-yl)-1H-pyrazolo[4,3-b]pyridin-5-yl) pyridin-3-ol] | 7.2% | 13% | 27.9% |
